Laboratory results: patent EP0083683A1, “Method of preparing 1,4-bis(substituted-amino)-5,8-dihydroxyanthraquinones and pharmaceutical compositions containing them” (AMERICAN CYANAMID COMPANY, priority 1981, dated 1983)

Legend:
[1] = tested on: lymphocytic leukemia P388; test: Lymphocytic leukemia P388 test; assay type: in vivo, DBA/2 mice
Procedure: The animals used are DBA/2 mice all of one sex, weighing a minimum of 17 g. and all within a 3 g. weight range. There are 5 or 6 animals per test group. The tumor transplant is by intraperitoneal injection of 0.5 ml. of dilute ascitic fluid containing 10^6 cells of lymphocytic leukemia P388. The test compounds are administered intraperitoneally on days one, 5 and 9 (relative to tumor inoculation) at various doses. […] The median survival time and the ratio of survival time for treated (T)/control (C) animals are calculated. The positive control compound is 5-fluorouracil given as a 60 mg./kg. injection. The results of this test with representative compounds of the present invention appear in Table I. The criterion for efficacy is T/C x 100>125%.

melanotic melanoma B16 = test: Melanotic Melanoma B16 test; assay type: in vivo, BDF1 mice
Procedure: The animals used are BDF1 mice, all of the same sex, weighing a minimum of 17 g. and all within a 3 g. weight range. There are normally 10 animals per test group. A one-gram portion of melanotic melanoma B16 tumor is homogenized in 10 ml. of cold balanced salt solution and a 0.5 ml. aliquot of the homogenate is implanted intraperitoneally into each of the test mice. The test compounds are administered intraperitoneally on days one through 9 (relative to tumor inoculation) at various doses. The animals are weighed and survivors are recorded on a regular basis for 60 days. The median survival time and the ratio of survival time for treated (T)/control (C) animals are calculated. The positive control compound is 5-fluorouracil given as a 20 mg./kg. injection. The criterion for efficacy is T/C x 100 >125%.

[2] = 1st test, dose 0.78 mg./kg. intraperitoneally on days 1, 5 and 9
[3] = 1st test, dose 1.56 mg./kg. intraperitoneally on days 1, 5 and 9
[4] = 1st test, dose 3.12 mg./kg. intraperitoneally on days 1, 5 and 9
[5] = 1st test, dose 6.25 mg./kg. intraperitoneally on days 1, 5 and 9
[6] = 2nd test, dose 0.10 mg./kg. intraperitoneally on days 1, 5 and 9
[7] = 2nd test, dose 0.19 mg./kg. intraperitoneally on days 1, 5 and 9
[8] = 2nd test, dose 0.39 mg./kg. intraperitoneally on days 1, 5 and 9
[9] = 2nd test, dose 0.78 mg./kg. intraperitoneally on days 1, 5 and 9
[10] = 2nd test, dose 1.56 mg./kg. intraperitoneally on days 1, 5 and 9
[11] = 2nd test, dose 3.12 mg./kg. intraperitoneally on days 1, 5 and 9
[12] = 2nd test, dose 6.25 mg./kg. intraperitoneally on days 1, 5 and 9
[13] = dose 0.09 mg./kg. intraperitoneally on days one through 9
[14] = dose 0.19 mg./kg. intraperitoneally on days one through 9
[15] = dose 0.37 mg./kg. intraperitoneally on days one through 9
[16] = dose 0.75 mg./kg. intraperitoneally on days one through 9
[17] = dose 1.5 mg./kg. intraperitoneally on days one through 9
[18] = 1st test, positive control, dose 60 mg./kg.
[19] = 2nd test, positive control, dose 60 mg./kg.
[20] = positive control, dose 20.0 mg./kg.

O=C1c2c(O)ccc(O)c2C(=O)c2c(NCCN3CCOC3)ccc(NCCN3CCOC3)c21 [l,4-Dihydroxy-5,8-bis[[2-(3-oxazolidinyl)ethyl]amino]-anthraquinone]
Median Survival Time [1, 2]: 23.0 days | T/C x 100 (Percent) [1, 2]: 209% | Median Survival Time [1, 3]: 23.5 days | T/C x 100 (Percent) [1, 3]: 214% | "Cures" = number of survivors/total at 60 days [1, 4]: 1/6 | Median Survival Time [1, 4]: 29.5 days | T/C x 100 (Percent) [1, 4]: 268% | "Cures" = number of survivors/total at 60 days [1, 5]: 2/6 | Median Survival Time [1, 5]: >30.0 days | T/C x 100 (Percent) [1, 5]: >273% | Median Survival Time [1, 6]: 19.5 days | T/C x 100 (Percent) [1, 6]: 177% | Median Survival Time [1, 7]: 23.5 days | T/C x 100 (Percent) [1, 7]: 214% | Median Survival Time [1, 8]: 23.5 days | T/C x 100 (Percent) [1, 8]: 214% | Median Survival Time [1, 9]: 22.0 days | T/C x 100 (Percent) [1, 9]: 200% | "Cures" = number of survivors/total at 60 days [1, 10]: 1/6 | Median Survival Time [1, 10]: 30.0 days | T/C x 100 (Percent) [1, 10]: 273% | Median Survival Time [1, 11]: >30.0 days | T/C x 100 (Percent) [1, 11]: >273% | Median Survival Time [1, 12]: 14.0 days | T/C x 100 (Percent) [1, 12]: 127% | Median Survival Time (melanotic melanoma B16; [13]): 29.0 days | T/C x 100 (Percent) (melanotic melanoma B16; [13]): 153% | Median Survival Time (melanotic melanoma B16; [14]): 31.0 days | T/C x 100 (Percent) (melanotic melanoma B16; [14]): 163% | Median Survival Time (melanotic melanoma B16; [15]): 49.5 days | T/C x 100 (Percent) (melanotic melanoma B16; [15]): 260% | Median Survival Time (melanotic melanoma B16; [16]): 46.0 days | T/C x 100 (Percent) (melanotic melanoma B16; [16]): 242% | Median Survival Time (melanotic melanoma B16; [17]): 55.5 days | T/C x 100 (Percent) (melanotic melanoma B16; [17]): 292%

O=c1[nH]cc(F)c(=O)[nH]1 [5-Fluorouracil, 5-fluorouracil, reference compound]
Median Survival Time [1, 18]: 21.0 days | T/C x 100 (Percent) [1, 18]: 191% | Median Survival Time [1, 19]: 21.5 days | T/C x 100 (Percent) [1, 19]: 195% | Median Survival Time (melanotic melanoma B16; [20]): 26.0 days | T/C x 100 (Percent) (melanotic melanoma B16; [20]): 137%
